According to patent publication US20240383954A1, “PEPTIDE INHIBITORS OF INTERLEUKIN-23 RECEPTOR AND THEIR USE TO TREAT INFLAMMATORY DISEASES” (Janssen Biotech, Inc., priority 2020, published 2024):
Counter-ions that a name gives are not always drawn. Positions of bridges follow the written chain, without caps; N, C: chain ends. Non-standard residues stand in square brackets, D forms with d. Residues, ends and D or L forms follow the SMILES beside them. *: point of attachment. Trp(7-Me) = Cc1cccc2c(C[C@H](N)C(=O)O)c[nH]c12; 2Nal = N[C@@H](Cc1ccc2ccccc2c1)C(=O)O; AEF = NCCOc1ccc(C[C@H](N)C(=O)O)cc1; Cyclopropanecarbonyl = O=C(C1CC1)*; αMeF = C[C@](N)(Cc1ccccc1)C(=O)O; Pen = CC(C)(S)[C@H](N)C(=O)O; Isobutyryl = CC(C)C(=O)*; Thp = NC1(C(=O)O)CCOCC1; Hexanoyl = CCCCCC(=O)*; Tfa = O=C(C(F)(F)F)*; Butyryl = CCCC(=O)*

Target: IL-23R (Homo sapiens, UniProt Q5VWK5)
Sequence (Q5VWK5 24-629): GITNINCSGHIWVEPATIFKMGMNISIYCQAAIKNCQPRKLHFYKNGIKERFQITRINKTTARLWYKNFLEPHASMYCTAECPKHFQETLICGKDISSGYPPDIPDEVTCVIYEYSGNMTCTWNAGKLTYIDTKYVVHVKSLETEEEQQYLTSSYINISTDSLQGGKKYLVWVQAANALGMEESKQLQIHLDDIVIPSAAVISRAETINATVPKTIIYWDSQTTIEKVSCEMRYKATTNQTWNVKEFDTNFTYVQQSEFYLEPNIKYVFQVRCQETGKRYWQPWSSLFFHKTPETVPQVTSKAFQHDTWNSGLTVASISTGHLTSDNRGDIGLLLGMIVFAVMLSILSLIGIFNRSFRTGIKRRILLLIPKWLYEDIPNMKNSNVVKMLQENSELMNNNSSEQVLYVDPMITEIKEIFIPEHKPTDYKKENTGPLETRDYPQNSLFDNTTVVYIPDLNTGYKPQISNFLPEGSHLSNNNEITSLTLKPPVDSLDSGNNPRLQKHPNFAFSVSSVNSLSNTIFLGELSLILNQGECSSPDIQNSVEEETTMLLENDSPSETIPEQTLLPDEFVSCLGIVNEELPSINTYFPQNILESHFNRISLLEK
Test: cell-based
Conditions: PBMC pSTAT3 IC50 (nM), PBMCs from healthy donors, IL-23 5 ng/mL, 30 minutes, phosphorylated STAT3
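Further: cryopreserved PBMCs stimulated at 37 °C in 5% CO2, then lysed, with phosphorylated STAT3 quantified in lysates using a phospho-STAT panel kit.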

Structure (SMILES) | IC50
CC(=O)N[C@H](CCCNC(=N)N)C(=O)N[C@@H]1C(=O)N[C@@H](CCC(N)=O)C(=O)N[C@@H]([C@@H](C)O)C(=O)N[C@@H](Cc2c[nH]c3ccccc23)C(=O)N[C@@H](CCC(N)=O)C(=O)N[C@H](C(=O)N[C@@H](Cc2ccc(OCCN)cc2)C(=O)N[C@@H](Cc2ccc3ccccc3c2)C(=O)NC2(C(=O)N[C@@H](CCCCNC(=O)C3CC3)C(=O)N[C@@H](CC(N)=O)C(=O)N[C@@H](Cc3ccccc3)C(N)=O)CCOCC2)C(C)(C)SSC1(C)C [Compound 55, Ac-[(D)Arg]-[Pen]-Q-T-W-Q-[Pen]-Phe[4-(2-aminoethoxy)]-[2-Nal]-[THP]-[Lys(COcPr)]-N-F-NH2] (Ac-[dR][Pen]QTWQ[Pen][AEF][2Nal][Thp]K(Cyclopropanecarbonyl)NF-NH2; disulfide 2-7) | 25 nM
CC(=O)NCCCC[C@H](NC(=O)C1(NC(=O)[C@H](Cc2ccc3ccccc3c2)NC(=O)[C@H](Cc2ccc(OCCN)cc2)NC(=O)[C@H]2NC(=O)[C@H](CCC(N)=O)NC(=O)[C@H](Cc3c[nH]c4ccccc34)NC(=O)[C@H]([C@@H](C)O)NC(=O)[C@H](CCC(N)=O)NC(=O)[C@@H](NC(=O)[C@@H](CCCNC(=N)N)NC(C)=O)C(C)(C)SSC2(C)C)CCOCC1)C(=O)N[C@@H](CC(N)=O)C(=O)NC1(C(N)=O)CCOCC1 [Compound 56, Ac-[(D)Arg]-[Pen]-Q-T-W-Q-[Pen]-Phe[4-(2-aminoethoxy)]-[2-Nal]-[THP]-[Lys(Ac)]-N-[THP]-NH2] | 4.9 nM
CCC(=O)NCCCC[C@H](NC(=O)C1(NC(=O)[C@H](Cc2ccc3ccccc3c2)NC(=O)[C@H](Cc2ccc(OCCN)cc2)NC(=O)[C@H]2NC(=O)[C@H](CCC(N)=O)NC(=O)[C@H](Cc3c[nH]c4ccccc34)NC(=O)[C@H]([C@@H](C)O)NC(=O)[C@H](CCC(N)=O)NC(=O)[C@@H](NC(=O)[C@@H](CCCNC(=N)N)NC(C)=O)C(C)(C)SSC2(C)C)CCOCC1)C(=O)N[C@@H](CC(N)=O)C(=O)NC1(C(N)=O)CCOCC1 [Compound 57, Ac-[(D)Arg]-[Pen]-Q-T-W-Q-[Pen]-Phe[4-(2-aminoethoxy)]-[2-Nal]-[THP]-[Lys(COEt)]-N-[THP]-NH2] | 18 nM
CCCC(=O)NCCCC[C@H](NC(=O)C1(NC(=O)[C@H](Cc2ccc3ccccc3c2)NC(=O)[C@H](Cc2ccc(OCCN)cc2)NC(=O)[C@H]2NC(=O)[C@H](CCC(N)=O)NC(=O)[C@H](Cc3c[nH]c4ccccc34)NC(=O)[C@H]([C@@H](C)O)NC(=O)[C@H](CCC(N)=O)NC(=O)[C@@H](NC(=O)[C@@H](CCCNC(=N)N)NC(C)=O)C(C)(C)SSC2(C)C)CCOCC1)C(=O)N[C@@H](CC(N)=O)C(=O)N[C@@H](Cc1ccccc1)C(N)=O [Compound 58, Ac-[(D)Arg]-[Pen]-Q-T-W-Q-[Pen]-Phe[4-(2-aminoethoxy)]-[2-Nal]-[THP]-[Lys(COPr)]-N-F-NH2] (Ac-[dR][Pen]QTWQ[Pen][AEF][2Nal][Thp]K(Butyryl)NF-NH2; disulfide 2-7) | 35 nM
CCCCCC(=O)NCCCC[C@H](NC(=O)C1(NC(=O)[C@H](Cc2ccc3ccccc3c2)NC(=O)[C@H](Cc2ccc(OCCN)cc2)NC(=O)[C@H]2NC(=O)[C@H](CCC(N)=O)NC(=O)[C@H](Cc3c[nH]c4ccccc34)NC(=O)[C@H]([C@@H](C)O)NC(=O)[C@H](CCC(N)=O)NC(=O)[C@@H](NC(=O)[C@@H](CCCNC(=N)N)NC(C)=O)C(C)(C)SSC2(C)C)CCOCC1)C(=O)N[C@@H](CC(N)=O)C(=O)N[C@@H](Cc1ccccc1)C(N)=O [Compound 59, Ac-[(D)Arg]-[Pen]-Q-T-W-Q-[Pen]-Phe[4-(2-aminoethoxy)]-[2-Nal]-[THP]-[Lys(COPent)]-N-F-NH2] (Ac-[dR][Pen]QTWQ[Pen][AEF][2Nal][Thp]K(Hexanoyl)NF-NH2; disulfide 2-7) | 67 nM
CC(=O)N[C@H](CCCNC(=N)N)C(=O)N[C@@H]1C(=O)N[C@@H](CCC(N)=O)C(=O)N[C@@H]([C@@H](C)O)C(=O)N[C@@H](Cc2c[nH]c3ccccc23)C(=O)N[C@@H](CCC(N)=O)C(=O)N[C@H](C(=O)N[C@@H](Cc2ccc(OCCN)cc2)C(=O)N[C@@H](Cc2ccc3ccccc3c2)C(=O)NC2(C(=O)N[C@@H](CCCCNC(=O)C(F)(F)F)C(=O)N[C@@H](CC(N)=O)C(=O)N[C@@H](Cc3ccccc3)C(N)=O)CCOCC2)C(C)(C)SSC1(C)C [Compound 60, Ac-[(D)Arg]-[Pen]-Q-T-W-Q-[Pen]-Phe[4-(2-aminoethoxy)]-[2-Nal]-[THP]-[Lys(COCF3)]-N-F-NH2] (Ac-[dR][Pen]QTWQ[Pen][AEF][2Nal][Thp]K(Tfa)NF-NH2; disulfide 2-7) | 44 nM
CC(=O)N[C@H](CCCNC(=N)N)C(=O)N[C@@H]1C(=O)N[C@@H](CCC(N)=O)C(=O)N[C@@H]([C@@H](C)O)C(=O)N[C@@H](Cc2c[nH]c3ccccc23)C(=O)N[C@@H](CCC(N)=O)C(=O)N[C@H](C(=O)N[C@@H](Cc2ccc(OCCN)cc2)C(=O)N[C@@H](Cc2ccc3ccccc3c2)C(=O)NC2(C(=O)N[C@@H](CCCCNC(=O)C(C)C)C(=O)N[C@@H](CC(N)=O)C(=O)N[C@@H](Cc3ccccc3)C(N)=O)CCOCC2)C(C)(C)SSC1(C)C [Compound 61, Ac-[(D)Arg]-[Pen]-Q-T-W-Q-[Pen]-Phe[4-(2-aminoethoxy)]-[2-Nal]-[THP]-[Lys(COiPr)]-N-F-NH2] (Ac-[dR][Pen]QTWQ[Pen][AEF][2Nal][Thp]K(Isobutyryl)NF-NH2; disulfide 2-7) | 70 nM
CC(=O)NCCCC[C@@H]1NC(=O)[C@H](Cc2c[nH]c3c(C)cccc23)NC(=O)[C@H]([C@@H](C)O)NC(=O)[C@H](CC(N)=O)NC(=O)[C@@H](NC(C)=O)C(C)(C)SSC(C)(C)[C@@H](C(=O)N[C@@H](Cc2ccc(OCCN)cc2)C(=O)N[C@@H](Cc2ccc3ccccc3c2)C(=O)N[C@@](C)(CCCCN)C(=O)N[C@@H](CCCCNC(C)=O)C(=O)N[C@@H](CC(N)=O)C(=O)NC2(C(N)=O)CCOCC2)NC1=O [Compound 75, Ac-[Pen]-N-T-[W(7-Me)]-[Lys(Ac)]-[Pen]-Phe[4-(2-aminoethoxy)]-[2-Nal]-[a-MeLys]-[Lys(Ac)]-N-[THP]-NH2] | 8.9 nM
CC(=O)NCCCC[C@@H]1NC(=O)[C@H](Cc2c[nH]c3c(C)cccc23)NC(=O)[C@H]([C@@H](C)O)NC(=O)[C@H](CC(N)=O)NC(=O)[C@@H](NC(C)=O)C(C)(C)SSC(C)(C)[C@@H](C(=O)N[C@@H](Cc2ccc(OCCN)cc2)C(=O)N[C@@H](Cc2ccc3ccccc3c2)C(=O)N[C@@](C)(CCCCN)C(=O)N[C@@H](CCCCNC(C)=O)C(=O)N[C@@H](CC(N)=O)C(=O)N[C@@](C)(Cc2ccccc2)C(N)=O)NC1=O [Compound 76, Ac-[Pen]-N-T-[W(7-Me)]-[Lys(Ac)]-[Pen]-Phe[4-(2-aminoethoxy)]-[2-Nal]-[a-MeLys]-[Lys(Ac)]-N-[a-MePhe]-NH2] | 11 nM
CC(=O)NCCCC[C@@H]1NC(=O)[C@H](Cc2c[nH]c3c(C)cccc23)NC(=O)[C@H]([C@@H](C)O)NC(=O)[C@H](CC(N)=O)NC(=O)[C@@H](NC(=O)[C@@H](CCCNC(=N)N)NC(C)=O)C(C)(C)SSC(C)(C)[C@@H](C(=O)N[C@@H](Cc2ccc(OCCN)cc2)C(=O)N[C@@H](Cc2ccc3ccccc3c2)C(=O)NC2(C(=O)N[C@@H](CCC(=O)O)C(=O)N[C@@H](CC(N)=O)C(=O)N[C@@](C)(Cc3ccccc3)C(N)=O)CCOCC2)NC1=O [Compound 77, Ac-[(D)Arg]-[Pen]-N-T-[W(7-Me)]-[Lys(Ac)]-[Pen]-Phe[4-(2-aminoethoxy)]-[2-Nal]-[THP]-E-N-[a-MePhe]-NH2] (Ac-[dR][Pen]NT[Trp(7-Me)]K(Ac)[Pen][AEF][2Nal][Thp]EN[αMeF]-NH2; disulfide 2-7) | 6.4 nM
COc1ccc(C[C@H](NC(=O)[C@H](CC(N)=O)NC(=O)[C@](C)(CCC(=O)O)NC(=O)C2(NC(=O)[C@H](Cc3ccc4ccccc4c3)NC(=O)[C@H](Cc3ccc(OCCN)cc3)NC(=O)[C@@H]3CSCC[C@H](NC(=O)[C@@H](CCCNC(=N)N)NC(C)=O)C(=O)N[C@@H](CCC(N)=O)C(=O)N[C@@H]([C@@H](C)O)C(=O)N[C@@H](Cc4c[nH]c5ccccc45)C(=O)N[C@@H](CCC(N)=O)C(=O)N3)CCOCC2)C(N)=O)cc1OC [Compound 78, Ac-[(D)Arg]-[Abu]-Q-T-W-Q-[Cys]-Phe[4-(2-aminoethoxy)]-[2-Nal]-[THP]-[aMeGlu]-N-[Phe(3,4-diOMe)]-NH2] | 31 nM
COc1ccc(C[C@@H](NC(=O)[C@H](CC(N)=O)NC(=O)[C@](C)(CCC(=O)O)NC(=O)C2(NC(=O)[C@H](Cc3ccc4ccccc4c3)NC(=O)[C@H](Cc3ccc(OCCN)cc3)NC(=O)[C@@H]3CSCC[C@H](NC(=O)[C@@H](CCCNC(=N)N)NC(C)=O)C(=O)N[C@@H](CCC(N)=O)C(=O)N[C@@H]([C@@H](C)O)C(=O)N[C@@H](Cc4c[nH]c5ccccc45)C(=O)N[C@@H](CCC(N)=O)C(=O)N3)CCOCC2)C(N)=O)cc1OC [Compound 79, Ac-[(D)Arg]-[Abu]-Q-T-W-Q-[Cys]-Phe[4-(2-aminoethoxy)]-[2-Nal]-[THP]-[aMeGlu]-N-[(D)Phe(3,4-diOMe)]-NH2] | 25 nM
CC(=O)N[C@H](CCCNC(=N)N)C(=O)N[C@H]1CCSC[C@@H](C(=O)N[C@@H](Cc2ccc(OCCN)cc2)C(=O)N[C@@H](Cc2ccc3ccccc3c2)C(=O)NC2(C(=O)N[C@@H](CCC(=O)O)C(=O)N[C@@H](CC(N)=O)C(=O)N[C@@](C)(Cc3ccc4ccccc4c3)C(N)=O)CCOCC2)NC(=O)[C@H](CCC(N)=O)NC(=O)[C@H](Cc2c[nH]c3ccccc23)NC(=O)[C@H]([C@@H](C)O)NC(=O)[C@H](CCC(N)=O)NC1=O [Compound 80, Ac-[(D)Arg]-[Abu]-Q-T-W-Q-[Cys]-Phe[4-(2-aminoethoxy)]-[2-Nal]-[THP]-E-N-[aMe(2-Nal)]-NH2] | 46 nM
CC(=O)N[C@H](CCCNC(=N)N)C(=O)N[C@H]1CCSC[C@@H](C(=O)N[C@@H](Cc2ccc(OCCN)cc2)C(=O)N[C@@H](Cc2ccc3ccccc3c2)C(=O)NC2(C(=O)N[C@@](C)(CCC(=O)O)C(=O)N[C@@H](CC(N)=O)C(=O)N[C@@H](Cc3c[nH]c4ccc(F)cc34)C(N)=O)CCOCC2)NC(=O)[C@H](CCC(N)=O)NC(=O)[C@H](Cc2c[nH]c3ccccc23)NC(=O)[C@H]([C@@H](C)O)NC(=O)[C@H](CCC(N)=O)NC1=O [Compound 81, Ac-[(D)Arg]-[Abu]-Q-T-W-Q-[Cys]-Phe[4-(2-aminoethoxy)]-[2-Nal]-[THP]-[aMeGlu]-N-[W(5-F)]-NH2] | 30 nM
